# Measurements published in patent US10188743B2, “Cytisine-linked isoflavonoid antineoplastic agents for the treatment of cancer” (UNIVERSITY OF KENTUCKY RESEARCH FOUNDATION, priority 2016, dated 2019).
# Tested on: LS174T cancer cells
# Assay: ATP analysis of treated cells
# Format: cell-based
# Experimental: ATP analysis: Cells growing in 12-well plates were treated with DMSO or inhibitors, and lysed by adding 1 mL boiling D.D. water. Supernatants were analyzed by luminescence using ATP Determination Kit (Invitrogen, A22066).
smiles,measurement,value
"O=c1c(-c2ccc(Cl)cc2)coc2cc(OCCN3C[C@@H]4C[C@@H](C3)c3cccc(=O)n3C4)ccc12 [Compound 10c, (1 S,5S)-3-(2-((3-(4-chlorophenyl)-4-oxo-4H-chromen-7-yl)oxy)ethyl)-3,4,5,6-tetrahydro-1H-1,5-methanopyrido[1,2-a][1,5]diazocin-8(2H)-one]",level of ATP,decreased the levels
